In patent US20250381277A1, “COMPOSITIONS AND METHODS FOR TREATMENT OF NEUROLOGICAL DISORDERS” (Dana-Farber Cancer Institute, Inc., priority 2022, published 2025):
“Also recorded” adds a separate entry of the source.

Experiments:
Format in all cases: cell-based, mouse
[1] = system: CD11c^+ microglia of 9-mo old OPN-KO.5XFAD mice; assay: In vitro microglia assay: impact of OPN-αVβ3 interaction on CD11c^+ microglial TNF-α production; settings: 9-mo old OPN-KO.5XFAD microglia, Cilengitide 10 μM 1 h pre-incubation, then rmOPN 12.5 pg/ml, 24 h
Procedure: (a) Representative flow cytometry plots and quantification of TREM2 mean fluorescence intensity (MFI) in CD11c^+ OPN^+ and CD11c^+ OPN^− microglial subsets of 9-mo old 5XFAD mice. […] Statistical analysis was performed by two-tailed Student's t test. (b) Representative flow cytometry plots of TNF-α and TREM2 expression in CD11c^− OPN^− microglial subset of 9-mo old 5XFAD mice. CD11c^− OPN^− microglia expressed low level of TNF-α and negligible level of TREM2. The plots were representative results from 3 independent experiments. (c) Microglial expression of canonical OPN receptors in 5XFAD mice at different stages of disease. […] The histogram of CD44 and the contour plot of αVβ3 and αVβ5 were the representative results from 3 independent experiments. (d) The impact of OPN-αVβ3 interaction on CD11c^+ microglial production of TNF-α. […] (e) Representative flow cytometry plots and quantification of TREM2 MFI in CD11c^+ microglia of 9-mo old 5XFAD and OPN-KO.5XFAD mice (n=3). […] Two-tailed Student's t test was performed for statistical analysis.
To test the impact of OPN-αVβ3 interaction on CD11c^+ microglial pro-inflammatory response, microglia were enriched by anti-CD11b microbeads (purity >95%, Miltenyi) from 9-mo old OPN-KO.5XFAD mice and were seeded into 12-well plates at 3×10^5 cells/well in conventional microglia culture medium (DMEM-F12 with 10% fetal bovine serum+1% penicillin/streptomycin+10 ng/ml recombinant mouse M-CSF). Microglia were pre-incubated with a selective αVβ3 inhibitor, Cilengitide (10 μM) for 1 h followed by the addition of 12.5 pg/ml recombinant mouse OPN (rmOPN) and cultured for 24 h before analysis of CD11c^+ microglial expression of TNF-α by flow cytometry.

CD11c^+αVβ3^+ microglia = assay: Ki-67 and TNF-α expression in microglia of 9-mo old WT mice incubated with rmOPN or αVβ3 inhibitor (flow cytometry); settings: 9-mo old WT mice microglia, 24 h with or without 12.5 μg/ml rmOPN or 10 μM cilengitide
Procedure: (A) Microglia isolated from P5 and 9-mo old WT, OPN-KO and OPN-i-KI mice were incubated×1 h with […] pHrodo Green-labeled synaptosomes per 1×10^5 cells followed by flow cytometry analysis of CD11c^+ microglial engulfment of synaptosomes. CD11c^+ microglia from P5, but not 9-mo old WT mice, were highly phagocytic for engulfing synaptosomes in vitro. […] (C) CD11c^+ microglia expressed high levels of proliferation marker Ki-67 early in development (P5). OPN-s, but not OPN-i deficiency decreased Ki-67 expression in CD11c^+ microglia (n=3). *p<0.05 by one-way ANOVA with Bonferroni's multiple comparisons test. […] (E) Microglia isolated from 9-mo old WT mice were incubated×24 h with or without 12.5 μg/ml recombinant mouse OPN (rmOPN) or 10 μM αVβ3 inhibitor (cilengitide) followed by flow cytometry analysis of proliferation marker Ki-67. […] (G) Microglia isolated from 9-mo old WT mice were incubated×24 h with or without 12.5 μg/ml recombinant mouse OPN (rmOPN) or 10 μM αVβ3 inhibitor (cilengitide) followed by flow cytometry analysis of TNF-α expression. […] Data are shown as mean±s.e.m.
Microglial staining for flow cytometry analysis. Microglia were stained with Ghost dye Violet 510 (1:1000, Tonbo Biosciences) to exclude dead cells followed by Fc receptor blocking using CD16/CD32 antibody (1:100, BD Biosciences) to avoid non-specific staining. Appropriate microglial surface markers were used for staining, including anti-CD11b (1:100 Biolegend), anti-CD45 (1:100 Biolegend), anti-CD11c (1:50 Biolegend), anti-CD36 (1:100, Biolegend), anti-CD209a (1:100, Biolegend), anti-αV integrin (1:50, Biolegend), anti-β3 integrin (1:50, Biolegend), anti-CD86 (1:100, Biolegend), and anti-MHC II (1:100, Biolegend), followed by fixation and permeabilization for subsequent intracellular staining with anti-OPN (1:10, R&D Systems), anti-TNF-α (1:50, Biolegend) and intranuclear staining with anti-Ki-67 (1:100, Biolegend).

IL-1β = assay: Microglial inflammasome activation: IL-1β production (ELISA of culture medium); settings: LPS 100 ng/ml 3 h + Aβ1-42 fibrils 10 μM overnight; microglia from 9-mo 5XFAD and OPN-KO.5XFAD mice; rmOPN 12.5 pg/ml, Cilengitide 10 μM
Procedure: (§1) Intracellular Caspase-1 activity was measured by bioluminescent assay of microglia from 9-month-old 5XFAD mice. Detection of the specificity of Caspase-1 activity was confirmed by a selective Caspase-1 inhibitor (Ac-YVAD-CHO (SEQ ID NO: 13), 1 μM). Bar plots are representative results from three independent experiments. […] Activation of Caspase-1 and IL1β by provision of rmOPN was blocked following provision of αVβ3 inhibitor to microglia from 9-mo old 5XFAD and OPN-KO.5XFAD mice (n=3). ****p<0.0001, ***p<0.001, **p<0.01, *p<0.05, ns: not significant by one-way ANOVA with Bonferroni's multiple comparisons test. U.D. undetectable.
(§2) In these studies, microglia isolated from 9-mo old 5XFAD and OPN-KO.5XFAD mice were seeded into 96-well plates at 6×10^4 cells/well in conventional microglia culture medium (DMEM-F12 with 10% fetal bovine serum+1% penicillin/streptomycin+10 ng/ml recombinant mouse M-CSF). […] Microglial intracellular Caspase-1 activity was analyzed by the bioluminescent Caspase-Glo® 1 Inflammasome Assay Kit (Promega) per the manufacturer's instruction. […] Culture medium was collected for quantitative determination of microglial […] DuoSet ELISA kit (R&D Systems) according to the manufacturer's instructions.

Caspase-1 = assay: Microglial inflammasome activation: intracellular Caspase-1 activity (bioluminescent Caspase-Glo 1 assay); settings: LPS 100 ng/ml 3 h + Aβ1-42 fibrils 10 μM overnight; microglia from 9-mo 5XFAD and OPN-KO.5XFAD mice; rmOPN 12.5 pg/ml, Cilengitide 10 μM
Procedure: as §1, §2

Row | TNF-α expression in CD11c^+αVβ3^+ microglia (CD11c^+αVβ3^+ microglia) | Compound | TNF-α production by CD11c^+ microglia [1] | Ki-67 expression in CD11c^+αVβ3^+ microglia (CD11c^+αVβ3^+ microglia) | microglial IL-1β production (IL-1β) | microglial intracellular Caspase-1 activity (Caspase-1) | TNF-α production by CD11c^+ microglia ([1]; listed as αVβ3 inhibitor)
1 | Upregulation of TNF-α expression | rmOPN: recombinant mouse OPN (osteopontin) | induced TNF-α expression; also recorded: Upregulated TNF-α production | enhanced Ki-67 expression | substantially increased; also recorded: Activation | substantially increased; also recorded: Activation | –
2 | fully abolished | CC(C)[C@H]1C(=O)N[C@@H](CCCN=C(N)N)C(=O)NCC(=O)N[C@@H](CC(=O)O)C(=O)N[C@H](Cc2ccccc2)C(=O)N1C [Cilengitide] | abolished | markedly reduced; also recorded: fully abrogated | blocked | blocked | fully abrogated
